In PubChem BioAssay AID1919014 (Molecular Pharmacology Branch, DTP, NCI, 2023):

Tested on: NCI-H1341 complex spheroids, percent test/control
Test: Anticancer human tumor NCI-H1341 cell line growth inhibition [AhR];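 note: spheroids exposed to agents for seven days before readout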
Details: for IC50: curve of first compound; for viability, T/C: stronger effect = lower value
From the text: Multicellular complex tumor spheroid response to aryl hydrocarbon receptor antagonists in combination with a variety of drugs and investigational agents in selected tumor cell lines
The current study was undertaken to assess response to aryl hydrocarbon receptor antagonists in combination with standard-of-care drugs and investigational agents in solid tumor complex spheroid models. Complex spheroids include a stromal component modeled by human endothelial cells (HUVEC) and fibroblasts modeled by human mesenchymal stem cells (MSCs). The concentration ranges selected for each drug and investigational agent were based upon clinically achievable concentrations if the clinical Cmax of the agent was known.
Compounds. The drugs and investigational agents: BAY 2416964 (NSC825713), GNF351 (NSC835774), CH-223191 (NSC835775), CPI-455 (NSC825282), aza-TdCyd (NSC777586), decitabine (NSC127716), belinostat (NSC758774), entinostat (NSC756642), pevonedistat (NSC761192), tazemetostat (NSC777109), talazoparib (NSC765396), olaparib (NSC753686), selinexor (NSC780203), nedisertib (M3814, NSC802822), bortezomib (NSC756655), venetoclax (NSC766270), doxorubicin (NSC123127), elimusertib (BAY189344, NSC800525), ceralasertib (AZD6738, NSC777638), TAK-243 (NSC785004), alisertib (NSC759677), etoposide (NSC141540), topotecan (NSC609699), eribulin (NSC707389), gemcitabine (NSC613327), carboplatin (NSC241240), cisplatin (NSC119875), and SN-38 (NSC673596) were obtained from the National Cancer Institute (NCI) Developmental Therapeutics Program Chemical Repository (32). The FDA-approved anticancer drug set is available from the Developmental Therapeutics Program at https://dtp.cancer.gov/organization/dscb/obtaining/available plates.htm. […] The stock solutions were prepared in dimethyl sulfoxide (DMSO, Sigma-Aldrich, St. Louis, MO, cat. D2650), except for the platinum compounds which were prepared in saline (Quality Biological, Gaithersburg, MD, cat. 114-055-101), at 800-fold the tested concentration and stored at -70 degrees C prior to their use. All drugs and investigational agents were tested over a range starting from a high concentration at or near the clinical Cmax and decreasing in half-log increments. If the clinical Cmax for an agent had not been determined, the highest concentration tested was 10 microM (Table 1).
Cell Culture. All cells were maintained in an incubator at 37 degrees C and 5% CO2 with 95% humidity. The PDC lines were cultured according to standard operating procedures established by the NCI PDMR (https://pdmr.cancer.gov). Briefly, all PDCs were thawed and cultured in Matrigel-coated flasks prepared with a working solution of 1X Ham's F-12 nutrient mix, without supplementation (Invitrogen, Waltham, MA, cat. 11765054), 100 U/mL penicillin-streptomycin (Invitrogen, cat. 15140122), and 2.5% Matrigel (Corning Inc., Corning, NY, cat. 354248) for the first three passages. All PDCs were cultured in complete DMEM/F-12 media containing advanced DMEM/F-12 (Invitrogen, cat. 12634028), 4.9% defined fetal bovine serum, heat inactivated (HyClone Laboratories Inc., Logan, UT, cat. SH30070.03HI), 389 ng/mL hydrocortisone (Sigma-Aldrich, cat. H4001), 9.7 ng/mL human EGF recombinant protein (Invitrogen, cat. PHG0313), 23.4 microg/mL adenine (Sigma-Aldrich, cat. A2786), 97.3 U/mL penicillin-streptomycin (Invitrogen, cat. 15140122), 1.9 mM L-glutamine (Invitrogen, cat. 25030081), and 9.7 microM Y-27632 dihydrochloride (Tocris Bioscience, Bristol, United Kingdom, cat. 1254). The PDCs were cultured in complete DMEM/F12 media without 10 microM Y-27632 dihydrochloride for at least two passages prior to the screen. The established cell lines NCI-H1341 and […] were cultured in DMEM/F-12, HEPES (Invitrogen, cat. 11330032), 5% defined fetal bovine serum (HyClone Laboratories Inc., cat. SH30070.03), ITS premix universal culture supplement [insulin (5 microg/mL), transferrin (5 microg/mL), and selenious acid (5 ng/mL)] […]

[1] = second compound 0.1 µM, first compound 0.0316 µM
[2] = second compound 0.1 µM, first compound 0.1 µM
[3] = second compound 0.316 µM, first compound 0.0316 µM
[4] = second compound 0.316 µM, first compound 0.1 µM
[5] = second compound 1 µM, first compound 0.0316 µM
[6] = second compound 1 µM, first compound 0.1 µM
[7] = second compound 3.16 µM, first compound 0.0316 µM
[8] = second compound 3.16 µM, first compound 0.1 µM
[9] = second compound 10 µM, first compound 0.0316 µM
[10] = second compound 10 µM, first compound 0.1 µM

`O=C(C=Cn1cnc(-c2cc(C(F)(F)F)cc(C(F)(F)F)c2)n1)NNc1cnccn1` + Cc1cncc(-c2nc(NCCc3c[nH]c4ccccc34)c3ncn(C(C)C)c3n2)c1 gave an IC50 (second compound 0.1 µM) of 98.1 nM, an IC50 (second compound 0.316 µM) of 56.8 nM and an IC50 (second compound 1 µM) of 81.1 nM. The IC50 (second compound 3.16 µM) was 44.4 nM, the IC50 (second compound 10 µM) was less than 9.49 nM and the viability, T/C (second compound 0.1 µM, first compound 0.00949 µM) was 80.6%. For the same compound, the viability, T/C (second compound 0.1 µM, first compound 0.03 µM) was 77%, the viability, T/C (second compound 0.1 µM, first compound 0.0949 µM) was 51.1% and the viability, T/C (second compound 0.1 µM, first compound 0.3 µM) was 14.5%. It also gave a viability, T/C (second compound 0.1 µM, first compound 0.949 µM) of 7.39%, a viability, T/C (second compound 0.1 µM, first compound 3 µM) of 6.28% and a viability, T/C (second compound 0.316 µM, first compound 0.00949 µM) of 66.5%. For the same compound, the viability, T/C (second compound 0.316 µM, first compound 0.03 µM) was 65.7%, the viability, T/C (second compound 0.316 µM, first compound 0.0949 µM) was 38% and the viability, T/C (second compound 0.316 µM, first compound 0.3 µM) was 13.4%. For the same compound, the viability, T/C (second compound 0.316 µM, first compound 0.949 µM) was 7.92%, the viability, T/C (second compound 0.316 µM, first compound 3 µM) was 4.63% and the viability, T/C (second compound 1 µM, first compound 0.00949 µM) was 76.8%. The viability, T/C (second compound 1 µM, first compound 0.03 µM) was 78.5%, the viability, T/C (second compound 1 µM, first compound 0.0949 µM) was 45.1% and the viability, T/C (second compound 1 µM, first compound 0.3 µM) was 12.7%. The viability, T/C (second compound 1 µM, first compound 0.949 µM) was 7.39%, the viability, T/C (second compound 1 µM, first compound 3 µM) was 4.92% and the viability, T/C (second compound 3.16 µM, first compound 0.00949 µM) was 70.2%. For the same compound, the viability, T/C (second compound 3.16 µM, first compound 0.03 µM) was 60.4%, the viability, T/C (second compound 3.16 µM, first compound 0.0949 µM) was 30.8% and the viability, T/C (second compound 3.16 µM, first compound 0.3 µM) was 13.6%. The viability, T/C (second compound 3.16 µM, first compound 0.949 µM) was 7.86%, the viability, T/C (second compound 3.16 µM, first compound 3 µM) was 4.46% and the viability, T/C (second compound 10 µM, first compound 0.00949 µM) was 35.3%. It also gave a viability, T/C (second compound 10 µM, first compound 0.03 µM) of 34.8%, a viability, T/C (second compound 10 µM, first compound 0.0949 µM) of 17.4% and a viability, T/C (second compound 10 µM, first compound 0.3 µM) of 9.23%. For the same compound, the viability, T/C (second compound 10 µM, first compound 0.949 µM) was 5.77% and the viability, T/C (second compound 10 µM, first compound 3 µM) was 3.55%.
`Cn1ncnc1C1c2n[nH]c(=O)c3cc(F)cc(c23)NC1c1ccc(F)cc1` (stereo not given) + Cc1cncc(-c2nc(NCCc3c[nH]c4ccccc34)c3ncn(C(C)C)c3n2)c1 gave an IC50 (second compound 0.1 µM) greater than 100 nM, an IC50 (second compound 0.316 µM) greater than 100 nM and an IC50 (second compound 1 µM) greater than 100 nM. The IC50 (second compound 3.16 µM) was greater than 100 nM, the IC50 (second compound 10 µM) was less than 0.316 nM and the viability, T/C (second compound 0.1 µM, first compound 0.000316 µM) was 99.9%. The viability, T/C (second compound 0.1 µM, first compound 0.001 µM) was 98.5%, the viability, T/C (second compound 0.1 µM, first compound 0.00316 µM) was 93.4% and the viability, T/C (second compound 0.1 µM, first compound 0.01 µM) was 89.3%. The viability, T/C [1] was 80.6%, the viability, T/C [2] was 69.1% and the viability, T/C (second compound 0.316 µM, first compound 0.000316 µM) was 87%. For the same compound, the viability, T/C (second compound 0.316 µM, first compound 0.001 µM) was 86.8%, the viability, T/C (second compound 0.316 µM, first compound 0.00316 µM) was 89.2% and the viability, T/C (second compound 0.316 µM, first compound 0.01 µM) was 91.7%. The viability, T/C [3] was 66.8%, the viability, T/C [4] was 73.4% and the viability, T/C (second compound 1 µM, first compound 0.000316 µM) was 78.2%. It also gave a viability, T/C (second compound 1 µM, first compound 0.001 µM) of 79.8%, a viability, T/C (second compound 1 µM, first compound 0.00316 µM) of 88.2% and a viability, T/C (second compound 1 µM, first compound 0.01 µM) of 95.6%. For the same compound, the viability, T/C [5] was 80.6%, the viability, T/C [6] was 64.5% and the viability, T/C (second compound 3.16 µM, first compound 0.000316 µM) was 73.9%. The viability, T/C (second compound 3.16 µM, first compound 0.001 µM) was 75.6%, the viability, T/C (second compound 3.16 µM, first compound 0.00316 µM) was 75.6% and the viability, T/C (second compound 3.16 µM, first compound 0.01 µM) was 72.6%. It also gave a viability, T/C [7] of 77.2%, a viability, T/C [8] of 62.5% and a viability, T/C (second compound 10 µM, first compound 0.000316 µM) of 38.7%. It also gave a viability, T/C (second compound 10 µM, first compound 0.001 µM) of 40.6%, a viability, T/C (second compound 10 µM, first compound 0.00316 µM) of 43.9% and a viability, T/C (second compound 10 µM, first compound 0.01 µM) of 42.1%. It also gave a viability, T/C [9] of 36.1% and a viability, T/C [10] of 40.2%.
With `CC(C)c1c(-c2ccccc2)nc2c(C#N)c[nH]n2c1=O` + Cc1ccccc1N=Nc1ccc(NC(=O)c2ccnn2C)c(C)c1 the IC50 (second compound 0.1 µM) was greater than 10000 nM, the IC50 (second compound 0.316 µM) was greater than 10000 nM and the IC50 (second compound 1 µM) was greater than 10000 nM. The IC50 (second compound 3.16 µM) was greater than 10000 nM, the IC50 (second compound 10 µM) was less than 31.6 nM and the viability, T/C [1] was 84.2%. It also gave a viability, T/C [2] of 87.6%, a viability, T/C (second compound 0.1 µM, first compound 0.316 µM) of 86.5% and a viability, T/C (second compound 0.1 µM, first compound 1 µM) of 87.5%. It also gave a viability, T/C (second compound 0.1 µM, first compound 3.16 µM) of 81.7%, a viability, T/C (second compound 0.1 µM, first compound 10 µM) of 96.4% and a viability, T/C [3] of 99%. The viability, T/C [4] was 82.8%, the viability, T/C (second compound 0.316 µM, first compound 0.316 µM) was 84.2% and the viability, T/C (second compound 0.316 µM, first compound 1 µM) was 92.2%. The viability, T/C (second compound 0.316 µM, first compound 3.16 µM) was 97.5%, the viability, T/C (second compound 0.316 µM, first compound 10 µM) was 83.2% and the viability, T/C [5] was 90.1%. The viability, T/C [6] was 93.8%, the viability, T/C (second compound 1 µM, first compound 0.316 µM) was 74% and the viability, T/C (second compound 1 µM, first compound 1 µM) was 81.7%. It also gave a viability, T/C (second compound 1 µM, first compound 3.16 µM) of 83.8%, a viability, T/C (second compound 1 µM, first compound 10 µM) of 95.7% and a viability, T/C [7] of 72.2%. It also gave a viability, T/C [8] of 77.1%, a viability, T/C (second compound 3.16 µM, first compound 0.316 µM) of 59.5% and a viability, T/C (second compound 3.16 µM, first compound 1 µM) of 72.2%. It also gave a viability, T/C (second compound 3.16 µM, first compound 3.16 µM) of 73.3%, a viability, T/C (second compound 3.16 µM, first compound 10 µM) of 76.4% and a viability, T/C [9] of 44.9%. It also gave a viability, T/C [10] of 49%, a viability, T/C (second compound 10 µM, first compound 0.316 µM) of 52% and a viability, T/C (second compound 10 µM, first compound 1 µM) of 48.6%. The viability, T/C (second compound 10 µM, first compound 3.16 µM) was 59.3% and the viability, T/C (second compound 10 µM, first compound 10 µM) was 42.9%.
